From patent publication US20260132126A1, “IMIDAZOLE DERIVATIVES” (SANWA KAGAKU KENKYUSHO CO., LTD., priority 2022, published 2026)

Target: T1, human α1A adrenergic receptor (Homo sapiens, UniProt P35348)
T1 construct: host or cells: GeneBLAzer ADRA1A-NFAT-bla CHO-K1 cells
T1 sequence (P35348 1-466): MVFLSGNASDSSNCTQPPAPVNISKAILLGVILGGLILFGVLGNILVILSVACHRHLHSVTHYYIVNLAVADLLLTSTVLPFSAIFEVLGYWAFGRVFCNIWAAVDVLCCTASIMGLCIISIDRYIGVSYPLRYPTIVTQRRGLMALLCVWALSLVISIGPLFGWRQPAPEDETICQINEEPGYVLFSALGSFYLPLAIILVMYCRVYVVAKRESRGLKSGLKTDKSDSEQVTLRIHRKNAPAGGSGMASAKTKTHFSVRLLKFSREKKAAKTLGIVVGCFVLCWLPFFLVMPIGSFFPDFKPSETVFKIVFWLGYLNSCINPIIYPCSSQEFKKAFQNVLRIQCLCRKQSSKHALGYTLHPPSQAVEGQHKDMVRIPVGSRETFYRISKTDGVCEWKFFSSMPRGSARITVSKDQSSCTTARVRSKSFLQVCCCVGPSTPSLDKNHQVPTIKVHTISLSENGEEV
Assay: Ca2+ mobilization assay in human α1A adrenergic receptor-expressing cells
Assay type: cell-based
Conditions: for Emax at 10 µM: % activation at 10 μmol/L test compound, 100 μmol/L norepinephrine = 100%, well without test compound = 0%; for EC50: CHO-K1 cells expressing human α1A adrenergic receptor, Fluo-4 fluorescence, concentration giving 50% response of Emax, 4-parameter logistic regression
Method: CHO-K1 cells that highly express a human α1A adrenergic receptor (GeneBLAzer™ ADRA1A-NFAT-bla CHO-K1 Cells) were purchased from Thermo Fisher Scientific, Inc., and cultured according to the instructions.
The cultured human α1A adrenergic receptor-expressing cells were washed with D-PBS, then replaced with a loading buffer (2 μmol/L Fluo-4/AM, 1× PowerLoad, 2.5 mmol/L Probenecid-containing DMEM (high-glucose)) and incubated at 37° C. for 60 minutes in a 5% CO2 incubator. The cells were detached using 0.05% trypsin-EDTA solution, and suspended in an assay buffer ([…], 0.054 mol/L KCl, 1.8 mmol/L CaCl2), 1 mmol/L MgSO4, 0.11 mol/L glucose, 0.01 mol/L NaH2PO4·2H2O, […], pH 7.3) to be 500,000 cells/mL.
Test compounds were dissolved in dimethylsulfoxide, and diluted with an assay buffer containing 0.3% BSA. The final concentrations of the test compounds were set to fall within the range of 0.1 nmol/L to 10 μmol/L. As a reference compound, norepinephrine was set to have a final concentration within the range of 0.01 nmol/L to 100 μmol/L.
On a 384-well clear bottom black plate coated with poly-D-lysine (Corning Inc.), the above-described cell-suspended solution was dispersed in 40 μL each (20,000 cells/well) and allowed to stand for 10 minutes. The plate was transferred to a fluorescent imaging plate reader (FDSS7000, Hamamatsu Photonics K.K.), and measurements were started. After 1 minute from the start of the measurements, 20 μL of the test compound solutions or norepinephrine solution (total amount: 60 μL/well) was added to each well of the plate (final concentration: 0.1% BSA, 0.1% dimethylsulfoxide), and the temporal change in fluorescence intensity of Fluo-4 was further measured for 5 minutes (Ex 480 nm/Em 540 nm).
The normalized values (% activation) were used for subsequent analyses.
Emax values and EC50 values were calculated by creating a concentration-response curve of the test compounds using a 4-parameter logistic regression with XLFit, Emax value being defined as % activation of test compound at the concentration of 10 μmol/L, and EC50 value being defined as the concentration in which 50% response of the Emax values is shown.

**Q.** Which results are given for `c1ccc(-c2cnco2)c(NCc2c[nH]cn2)c1` [compound 1, N-((1H-imidazol-4-yl)methyl)-2-(oxazol-5-yl) aniline, reference compound]?
**A.** Emax at 10 µM: 91%; EC50: 20 nM

**Q.** Which Emax at 10 µM does the source give for `COc1cccc(-c2ccccc2NCc2c[nH]cn2)n1` [Example 32, N-((1H-imidazol-4-yl)methyl)-2-(6-methoxypyridin-2-yl)aniline] here?
**A.** 100%

**Q.** And the EC50?
**A.** 1.1 nM

**Q.** `COc1ccncc1-c1ccc(F)cc1OCc1c[nH]cn1` [Example 63] was tested. Which Emax at 10 µM did it give?
**A.** 92%

**Q.** And the EC50?
**A.** 0.7 nM

**Q.** Which Emax at 10 µM does the source give for `CC(Nc1ccccc1-c1cccnc1)c1c[nH]cn1` (centres unmarked) [Example 35, N-(1-(1H-Imidazol-4-yl)ethyl)-2-(pyridin-3-yl)aniline] here?
**A.** 90%

**Q.** What about the EC50 of the same compound?
**A.** 5.1 nM

**Q.** With `Cc1ccc(-c2cnccc2C)c(OCc2c[nH]cn2)c1` [Example 57] as the compound, how does the Emax at 10 µM read?
**A.** 96%

**Q.** What about the EC50 of the same compound?
**A.** 6.1 nM

**Q.** With `c1cncc(-c2ccccc2NCc2c[nH]cn2)c1` [Example 9, N-((1H-imidazol-4-yl)methyl)-2-(pyridin-3-yl)aniline] as the compound, how does the Emax at 10 µM read?
**A.** 101%

**Q.** What about the EC50 of the same compound?
**A.** 2.1 nM

**Q.** With `Cc1ncncc1-c1ccc(F)cc1NCc1c[nH]cn1` [Example 25, N-((1H-imidazol-4-yl)methyl)-5-fluoro-2-(4-methylpyrimidin-5-yl)aniline] as the compound, how does the Emax at 10 µM read?
**A.** 100%

**Q.** What about the EC50 of the same compound?
**A.** 1.7 nM

**Q.** Which Emax at 10 µM does the source give for `CC(Nc1ccccc1-c1cccnc1)c1c[nH]cn1` (single isomer, unassigned; (+)) [Example 36, (+)-N-(1-(1H-Imidazol-4-yl)ethyl)-2-(pyridin-3-yl)aniline] here?
**A.** 86%

**Q.** And the EC50?
**A.** 3.7 nM

**Q.** How did the Emax at 10 µM turn out when `Fc1cncc(-c2cscc2NCc2c[nH]cn2)c1` [Example 6, N-((1H-imidazol-4-yl)methyl)-4-(5-fluoropyridin-3-yl)thiophen-3-amine] was run?
**A.** 92%

**Q.** And the EC50?
**A.** 1.1 nM

**Q.** Which results are given for `CC(Oc1ccccc1-c1cccs1)c1c[nH]cn1` (centres unmarked) [Example 78, 4-(1-(2-(Thiophen-2-yl)phenoxy)ethyl)-1H-imidazole]?
**A.** Emax at 10 µM: 99%; EC50: 6.4 nM

**Q.** Which results are given for `Cc1ccc(-c2cnccn2)c(OCc2c[nH]cn2)c1` [Example 66, 2-(2-((1H-Imidazol-4-yl)methoxy)-4-methylphenyl)pyrazine]?
**A.** Emax at 10 µM: 96%; EC50: 1.3 nM

**Q.** How did the Emax at 10 µM turn out when `N#Cc1n[nH]cc1-c1ccccc1OCc1c[nH]cn1` [Example 50] was run?
**A.** 110%

**Q.** What about the EC50 of the same compound?
**A.** 0.9 nM

**Q.** With `COc1cncc(-c2ccccc2OCc2c[nH]cn2)c1` [Example 53] as the compound, how does the Emax at 10 µM read?
**A.** 93%

**Q.** What about the EC50 of the same compound?
**A.** 5.1 nM

**Q.** `CC(Oc1ccccc1-c1cccs1)c1c[nH]cn1` (single isomer, unassigned; (+)) [Example 79, (+)-4-(1-(2-(Thiophen-2-yl)phenoxy)ethyl)-1H-imidazole] was tested. Which Emax at 10 µM did it give?
**A.** 108%

**Q.** What about the EC50 of the same compound?
**A.** 4.5 nM

**Q.** With `c1csc(-c2sccc2NCc2c[nH]cn2)c1` [Example 2, N-((1H-imidazol-4-yl)methyl)-[2,2′-bithiophen]-3-amine] as the compound, how does the Emax at 10 µM read?
**A.** 105%

**Q.** What about the EC50 of the same compound?
**A.** 0.9 nM

**Q.** With `c1ncc(-c2cscc2NCc2c[nH]cn2)cn1` [Example 42] as the compound, how does the Emax at 10 µM read?
**A.** 97%

**Q.** What about the EC50 of the same compound?
**A.** 7.3 nM
